# Assay results reported in patent US20230346827A1 (priority 2020, published 2023).
# System: rats subjected to sTBI
# Experiment: sTBI rats, LMW-DS 1, 5, 15 mg/kg s.c. 30 min post-TBI: HPLC of brain energy metabolites, antioxidants, oxidative/nitrosative stress biomarkers (Example 4)
# Type: in vivo, rat
# Method: Male Wistar rats (n=160) of 300-350 g body weight were used in this study. They were fed with standard laboratory diet and water ad libitum in a controlled environment.
# As the accepted anesthetic mixture, animals received 35 mg/kg b.w. ketamine and 0.25 mg/kg body weight midazolam by intramuscular injection. Diffuse sTBI was induced according to the “weight drop” impact acceleration model set up by Marmarou et al. J. Neurosurg. 1994, 80: 291-300. This model causes diffuse axonal injury and it is able to reproduce the physical and mechanical characteristics of the diffuse TBI in humans.
# Severe TBI was induced by dropping a 450 g weight from 2 meters height onto the rat head protected by a helmet (metal disk previously fixed on the skull using dental cement) in order to uniformly distribute the mechanical force to the brain. Rats were placed prone on a bed of specific polyurethane foam inserted in a special container; this foam dissipates the major part of the potential energy (deriving from the mechanical forces) and prevents any rebound of the animal after the impact that could produce spinal damages.
# After 2 or 7 days from TBI induction, rats were anesthetized again and then immediately sacrificed. These time points are coincident with the worst biochemical derangement (2 days) or, in the case of a mildly injured brain, with a full metabolic recovery (7 days).
# The drug treatment consisted in a subcutaneous injection of 0.5 ml of LMW-DS (ILB®, Tikomed, Viken, Sweden, WO 2016/076780) and administered at 3 different concentrations (1, 5 and 15 mg/kg body weight), according to the schematic protocol described below. Sham-operated animals underwent the same procedure of anesthesia but TBI and were used as the control group.
# (§1) Rats subjected to sTBI and receiving a single administration of LMW-DS after 30 minutes post-TBI, with sacrifice at 2 days post-TBI. Animals were divided in the following subgroups: • 1. 12 animals subjected to sTBI and treated with 1 mg/kg b.w. LMW-DS • 2. 12 animals subjected to sTBI and treated with 5 mg/kg b.w. LMW-DS • 3. 12 animals subjected to sTBI and treated with 15 mg/kg b.w. LMW-DS
# as §1, with “at 7” for “at 2”
# Rats (n = 12) subjected to sTBI and receiving repeated administrations of the maximal dose of LMW-DS (15 mg/kg b.w.) after 30 minutes, 3 days and 5 days post-TBI, with sacrifice at 7 days post-TBI. Four additional rats were used for the histo-morphological studies. Total rats in this group: n=16
# To minimize metabolite loss, an in vivo craniectomy was performed in all animals during anesthesia. The rat skull was carefully removed, the brain was exposed, sharply cut along the sagittal fissure and the two hemispheres were separated. The hemispheres dedicated to biochemical analyses were freeze-clamped by aluminum tongues pre-cooled in liquid nitrogen and then immersed in liquid nitrogen. The freeze-clamping procedure was introduced to accelerate freezing of the tissue, thus minimizing potential metabolite loss.
# Tissue homogenization for metabolite analyses was effected as described below. After the wet weight (w.w.) determination, the frozen hemispheres were placed into 7 ml of ice-cold, nitrogen-saturated, precipitating solution (1:10 w/v) composed by CH3CN + 10 mM KH2PO4, pH 7.40, (3:1; v:v), and the homogenization was performed using an Ultra-Turrax homogenizer set at 24,000 rpm/min (Janke & Kunkel, Staufen, Germany). […]
# [1] = 1 mg/kg, 7 d post-sTBI, adimensional ratio
substance,measurement,setting,value
sodium salt of dextran sulfate [LMW-DS],UDP-Glc,"1 mg/kg, 7 d post-sTBI",63.19 ± 12.84 nmol/g w.w.
same,UDP-GlcNac,"1 mg/kg, 7 d post-sTBI",85.36 ± 29.53 nmol/g w.w.
same,UMP,"1 mg/kg, 7 d post-sTBI",103.06 ± 19.96 nmol/g w.w.
same,URACIL,"1 mg/kg, 7 d post-sTBI",14.78 ± 3.04 nmol/g w.w.
same,URIC ACID,"1 mg/kg, 7 d post-sTBI",7.13 ± 1.70 nmol/g w.w.
same,URIDINE,"1 mg/kg, 7 d post-sTBI",110.17 ± 26.11 nmol/g w.w.
same,UTP,"1 mg/kg, 7 d post-sTBI",179.75 ± 31.48 nmol/g w.w.
same,XANTHINE,"1 mg/kg, 7 d post-sTBI",12.53 ± 3.54 nmol/g w.w.
same,β-PSEUDOURIDINE,"1 mg/kg, 7 d post-sTBI",14.00 ± 2.60 nmol/g w.w.
same,ATP/ADP,[1],6.12 ± 0.78
same,NAD+/NADH,[1],33.91 ± 9.32
same,ADENOSINE,"5 mg/kg, 2 d post-sTBI",92.58 ± 22.16 nmol/g w.w.
same,ADP,"5 mg/kg, 2 d post-sTBI",364.92 ± 31.39 nmol/g w.w.
same,ADP-Ribose,"5 mg/kg, 2 d post-sTBI",21.65 ± 4.35 nmol/g w.w.
same,AMP,"5 mg/kg, 2 d post-sTBI",67.03 ± 11.85 nmol/g w.w.
same,ASCORBIC ACID,"5 mg/kg, 2 d post-sTBI",2626.68 ± 151.17 nmol/g w.w.
same,ATP,"5 mg/kg, 2 d post-sTBI",1683.87 ± 98.66 nmol/g w.w.
same,Acetyl-CoA,"5 mg/kg, 2 d post-sTBI",34.85 ± 4.05 nmol/g w.w.
same,CDP choline,"5 mg/kg, 2 d post-sTBI",5.16 ± 0.77 nmol/g w.w.
same,CMP,"5 mg/kg, 2 d post-sTBI",28.94 ± 5.91 nmol/g w.w.
same,CREATININE,"5 mg/kg, 2 d post-sTBI",10.22 ± 1.90 nmol/g w.w.
same,CTP,"5 mg/kg, 2 d post-sTBI",37.72 ± 7.63 nmol/g w.w.
same,CYTIDINE,"5 mg/kg, 2 d post-sTBI",7.47 ± 1.35 nmol/g w.w.
same,CYTOSINE,"5 mg/kg, 2 d post-sTBI",13.65 ± 1.67 nmol/g w.w.
same,CoA-SH,"5 mg/kg, 2 d post-sTBI",7.46 ± 0.82 nmol/g w.w.
same,GDP,"5 mg/kg, 2 d post-sTBI",183.27 ± 25.32 nmol/g w.w.
same,GDP Glucose,"5 mg/kg, 2 d post-sTBI",83.81 ± 37.35 nmol/g w.w.
same,GMP,"5 mg/kg, 2 d post-sTBI",167.44 ± 8.47 nmol/g w.w.
same,GSH,"5 mg/kg, 2 d post-sTBI",2067.79 ± 301.54 nmol/g w.w.
same,GTP,"5 mg/kg, 2 d post-sTBI",180.01 ± 18.99 nmol/g w.w.
same,GUANINE,"5 mg/kg, 2 d post-sTBI",1.68 ± 0.42 nmol/g w.w.
same,GUANOSINE,"5 mg/kg, 2 d post-sTBI",30.97 ± 5.15 nmol/g w.w.
same,HYPOXANTHINE,"5 mg/kg, 2 d post-sTBI",4.18 ± 0.68 nmol/g w.w.
same,IMP,"5 mg/kg, 2 d post-sTBI",33.19 ± 6.25 nmol/g w.w.
same,INOSINE,"5 mg/kg, 2 d post-sTBI",114.89 ± 14.98 nmol/g w.w.
same,MDA,"5 mg/kg, 2 d post-sTBI",32.73 ± 5.33 nmol/g w.w.
same,Malonyl-CoA,"5 mg/kg, 2 d post-sTBI",35.58 ± 7.54 nmol/g w.w.
same,NADH,"5 mg/kg, 2 d post-sTBI",10.37 ± 1.19 nmol/g w.w.
same,NADPH,"5 mg/kg, 2 d post-sTBI",37.48 ± 3.11 nmol/g w.w.
same,NADP^+,"5 mg/kg, 2 d post-sTBI",11.86 ± 2.71 nmol/g w.w.
same,NAD^+,"5 mg/kg, 2 d post-sTBI",376.85 ± 64.15 nmol/g w.w.
same,NO2,"5 mg/kg, 2 d post-sTBI",218.12 ± 26.28 nmol/g w.w.
same,NO3,"5 mg/kg, 2 d post-sTBI",148.41 ± 32.30 nmol/g w.w.
same,UDP,"5 mg/kg, 2 d post-sTBI",70.93 ± 7.27 nmol/g w.w.
same,UDP-Gal,"5 mg/kg, 2 d post-sTBI",116.42 ± 9.72 nmol/g w.w.
same,UDP-GalNac,"5 mg/kg, 2 d post-sTBI",20.75 ± 3.06 nmol/g w.w.
same,UDP-Glc,"5 mg/kg, 2 d post-sTBI",28.60 ± 4.23 nmol/g w.w.
same,UDP-GlcNac,"5 mg/kg, 2 d post-sTBI",140.58 ± 12.80 nmol/g w.w.
same,UMP,"5 mg/kg, 2 d post-sTBI",97.98 ± 13.53 nmol/g w.w.
same,URACIL,"5 mg/kg, 2 d post-sTBI",17.83 ± 3.48 nmol/g w.w.
same,URIC ACID,"5 mg/kg, 2 d post-sTBI",11.22 ± 2.30 nmol/g w.w.
same,URIDINE,"5 mg/kg, 2 d post-sTBI",117.21 ± 20.64 nmol/g w.w.
same,UTP,"5 mg/kg, 2 d post-sTBI",142.82 ± 22.43 nmol/g w.w.
same,XANTHINE,"5 mg/kg, 2 d post-sTBI",6.71 ± 0.70 nmol/g w.w.
same,β-PSEUDOURIDINE,"5 mg/kg, 2 d post-sTBI",10.41 ± 2.09 nmol/g w.w.
same,NAD^+/NADH,"5 mg/kg, 2 d post-sTBI, adimensional ratio",36.61 ± 6.09
same,ADENOSINE,"5 mg/kg, 7 d post-sTBI",22.24 ± 16.47 nmol/g w.w.
same,ADP,"5 mg/kg, 7 d post-sTBI",289.27 ± 38.52 nmol/g w.w.
same,ADP-Ribose,"5 mg/kg, 7 d post-sTBI",6.76 ± 1.70 nmol/g w.w.
same,AMP,"5 mg/kg, 7 d post-sTBI",59.50 ± 4.68 nmol/g w.w.
same,ASCORBIC ACID,"5 mg/kg, 7 d post-sTBI",2195.87 ± 264.45 nmol/g w.w.
same,ATP,"5 mg/kg, 7 d post-sTBI",1730.92 ± 139.24 nmol/g w.w.
same,Acetyl-CoA,"5 mg/kg, 7 d post-sTBI",22.87 ± 3.89 nmol/g w.w.
same,CDP choline,"5 mg/kg, 7 d post-sTBI",10.37 ± 3.33 nmol/g w.w.
same,CMP,"5 mg/kg, 7 d post-sTBI",55.67 ± 22.97 nmol/g w.w.
same,CREATININE,"5 mg/kg, 7 d post-sTBI",5.48 ± 0.97 nmol/g w.w.
same,CTP,"5 mg/kg, 7 d post-sTBI",79.08 ± 14.54 nmol/g w.w.
same,CYTIDINE,"5 mg/kg, 7 d post-sTBI",26.51 ± 9.33 nmol/g w.w.
same,CYTOSINE,"5 mg/kg, 7 d post-sTBI",12.67 ± 2.72 nmol/g w.w.
same,CoA-SH,"5 mg/kg, 7 d post-sTBI",51.86 ± 6.66 nmol/g w.w.
same,GDP,"5 mg/kg, 7 d post-sTBI",126.82 ± 14.49 nmol/g w.w.
same,GDP Glucose,"5 mg/kg, 7 d post-sTBI",104.76 ± 12.25 nmol/g w.w.
same,GMP,"5 mg/kg, 7 d post-sTBI",101.42 ± 48.00 nmol/g w.w.
same,GSH,"5 mg/kg, 7 d post-sTBI",2412.17 ± 317.97 nmol/g w.w.
same,GTP,"5 mg/kg, 7 d post-sTBI",453.86 ± 41.27 nmol/g w.w.
same,GUANINE,"5 mg/kg, 7 d post-sTBI",7.92 ± 3.37 nmol/g w.w.
same,GUANOSINE,"5 mg/kg, 7 d post-sTBI",33.42± 6.96 nmol/g w.w.
same,HYPOXANTHINE,"5 mg/kg, 7 d post-sTBI",13.45 ± 3.91 nmol/g w.w.
same,IMP,"5 mg/kg, 7 d post-sTBI",68.72 ± 17.60 nmol/g w.w.
same,INOSINE,"5 mg/kg, 7 d post-sTBI",196.61 ± 22.06 nmol/g w.w.
same,MDA,"5 mg/kg, 7 d post-sTBI",17.78 ± 2.94 nmol/g w.w.
